Source: article PMC8351955, “Targeting Mycobacterium tuberculosis response to environmental cues for the development of effective antitubercular drugs” (PLoS Biology, 2021)
Like-named read-outs stand apart in the source and are kept apart here.

Tests used:
[1] = tested on: CDC1551(rv1405c′::GFP) reporter Mtb strain; assay: microbe, parasite or virus in culture; type: cell-based, Mycobacterium tuberculosis; conditions: Mycobacterium tuberculosis; for activity at 10 µM: read-out: rv1405c'::GFP secondary assay NPA% at 10 µM compound; for activity at 20 µM: read-out: rv1405c'::GFP secondary assay NPA% at 20 µM compound
[2] = tested on: CDC1551(rv2390c′::GFP) reporter Mtb strain, response to high [Cl−]; assay: microbe, parasite or virus in culture; type: cell-based, Mycobacterium tuberculosis; conditions: Mycobacterium tuberculosis, 144 h; for activity at 20 µM: read-out: rv2390c'::GFP validation assay NPA% at 20 µM compound
[3] = pH 6.4, […], DMSO positive control = 100%, read-out: Primary screen rv2390c'::GFP NPA%
[4] = 10 µM, pH 6.4, 250 mM NaCl, 6 days, read-out: rv2390c'::GFP validation assay NPA% at 10 µM compound

Row | Structure (SMILES) | activity at 10 µM [1] [%] | activity at 20 µM [1] [%] | activity at 10 µM [2, 3] [%] | activity at 10 µM [2, 4] [%] | activity at 20 µM ([2]; pH 6.4, 250 mM NaCl, 6 days) [%]
1 | CCOC(=O)Cc1cc(=O)n2nc(C(F)(F)F)c(-c3ccccc3)c2[nH]1 [RU-0171667, CCOC(=O)CC1=CC(=O)N2N=C(C(=C2N1)C1=CC=CC=C1)C(F)(F)F] | 84.5 ± 11.2 | 94.8 ± 4 | 163 | 148 ± 28.3 | 178 ± 17.6
2 | CC(SCc1cc(=O)n2nc(N)[nH]c2n1)c1ccccc1Cl (centres unmarked) [RU-0182827, CC(SCC1=CC(=O)N2N=C(N)NC2=N1)C1=C(Cl)C=CC=C1] | 6.6 ± 1.1 | 9.7 ± 3.1 | 11.2 | 13.3 ± 4.2 | 20 ± 4.4
3 | Cc1cc(C(C)C(=O)Nc2ccc(N3CCN(C)CC3)cn2)c(C)o1 (centres unmarked) [RU-0182922, CC(C(=O)NC1=NC=C(C=C1)N1CCN(C)CC1)C1=C(C)OC(C)=C1] | 96.9 ± 6.7 | 106 ± 5.2 | 174 | 139 ± 18.3 | 164 ± 13.6
4 | CC(CNC(=O)Nc1cccc(-c2noc(=O)[nH]2)c1)c1ccccc1 (centres unmarked) [RU-0182956, CC(CNC(=O)NC1=CC(=CC=C1)C1=NOC(=O)N1)C1=CC=CC=C1] | 38.3 ± 1.6 | 9.7 ± 1.2 | 48.1 | 66.7 ± 2.4 | 39 ± 3.5
5 | CSc1nc2nc3c(cc2c(=O)[nH]1)C(O)Oc1ccc(C)cc1-3 (centres unmarked) [RU-0183239, CSC1=NC2=C(C=C3C(O)OC4=C(C=C(C)C=C4)C3=N2)C(=O)N1] | 53.9 ± 4.3 | 12.9 ± 5.2 | 49.5 | 49.2 ± 4.2 | 33.7 ± 1.8
6 | O=C(NC[C@H]1C[C@H]2C=C[C@H]1C21CC1)c1cnc(N2CCOCC2)nc1 [RU-0184528, O=C(NC[C@H]1C[C@H]2C=C[C@H]1C21CC1)C1=CN=C(N=C1)N1CCOCC1] | 104 ± 21.9 | 136 ± 11.8 | 158 | 111 ± 2.1 | 134 ± 13.6
7 | Cc1ccc(-c2nc3nc(N)n(C)c(=O)c3nc2-c2ccc(C)cc2)cc1 [RU-0192424, CN1C(N)=NC2=NC(C3=CC=C(C)C=C3)=C(N=C2C1=O)C1=CC=C(C)C=C1] | 97 ± 3.1 | 120 ± 9.3 | 160 | 140 ± 10.1 | 169 ± 12.3
8 | COC(=O)Oc1sc2nc3ccccc3nc2c1N [RU-0193917, COC(=O)OC1=C(N)C2=C(S1)N=C1C=CC=CC1=N2] | 111 ± 4 | 179 ± 15 | 158 | 166 ± 15.7 | 184 ± 27
9 | Cc1nc2nc(-c3cccs3)nn2c(O)c1C1CCS(=O)(=O)C1 (centres unmarked) [RU-0194400, CC1=NC2=NC(=NN2C(O)=C1C1CCS(=O)(=O)C1)C1=CC=CS1] | -2.1 ± 2.6 | 2.5 ± 7 | 7.1 | 9.1 ± 3.9 | 15 ± 5.3
10 | CCN(CC)c1ccc2c(NC3CCCCC3)nc(=O)oc2c1 [RU-0196346, CCN(CC)C1=CC2=C(C=C1)C(NC1CCCCC1)=NC(=O)O2] | 110 ± 13 | 115 ± 9.5 | 183 | 161 ± 6.2 | 192 ± 12.4
11 | OCC(CNc1nc(N2CCCC2)nc(N2CCCC2)n1)Cc1ccco1 (centres unmarked) [RU-0198952, OCC(CNC1=NC(=NC(=N1)N1CCCC1)N1CCCC1)CC1=CC=CO1] | 171 ± 12.8 | 380 ± 28.2 | 170 | 123 ± 7.8 | 194 ± 15.6
12 | Cc1csc(/C(C#N)=C\c2ccc(C3CC3C)o2)n1 (centres unmarked) [RU-0200280, CC1CC1C1=CC=C(O1)\C=C(\C#N)C1=NC(C)=CS1] | 399 ± 31.8 | – | 277 | 144 ± 5.5 | 248 ± 21.2
13 | COc1ccc2c(C)cc(Nc3cc(F)ccc3C)nc2c1 [RU-0202188, COC1=CC2=C(C=C1)C(C)=CC(NC1=C(C)C=CC(F)=C1)=N2] | 206 ± 10.4 | 256 ± 16.6 | 159 | 128 ± 12.2 | 132 ± 17.8
14 | CC(NC(=O)c1cc(Cl)ccc1NS(C)(=O)=O)c1ccc2c(c1)OCO2 (centres unmarked) [RU-0202213, CC(NC(=O)C1=C(NS(C)(=O)=O)C=CC(Cl)=C1)C1=CC2=C(OCO2)C=C1] | 89.3 ± 18.6 | 119 ± 13.2 | 195 | 152 ± 9.2 | 181 ± 5.7
15 | CCOC(=O)N1C/C(=C/c2cccc(O)c2)C(=O)/C(=C/c2cccc(O)c2)C1 [RU-0202273, CCOC(=O)N1C\C(=C\C2=CC(O)=CC=C2)C(=O)\C(C1)=C\C1=CC(O)=CC=C1] | 84.5 ± 18.2 | 158 ± 19.3 | 154 | 113 ± 3.2 | 117 ± 11
